Test results as given in US20020137929A1, “1 - (3-heterocyclylphenyl) isothiourea, -isourea, -guanidine and -amidine herbicidal agents” (Intellectual Property Department, BASF Aktiengesellschaft, priority 1998, published 2002).

Assays:
SETVI (Foxtail, Green) [1] = experiment: Postemergence herbicidal evaluation; type: in vivo, Setaria viridis; conditions: postemergence
How it was run: (§1)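 Scores (0–9) reflect plant stand, vigor, malformation, size, chlorosis and general appearance relative to control, read 4 to 5 weeks after treatment and averaged where tests were repeated. Application: about 0.0156–0.500 kg/ha sprayed at 40 psi onto two-week seedlings.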

ABUTH (Velvetleaf) [2] = experiment: Preemergence herbicidal evaluation; type: in vivo, Abutilon theophrasti; conditions: rated 4-5 weeks after treatment; for ABUTH rating: preemergence, 0-9 scale
How it was run: (§2)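 Seeds were planted in potting soil in cups, then sprayed preemergence with the test compound in aqueous acetone at about 0.0156 to 0.500 kg per hectare. Cups were kept under greenhouse conditions and visually rated 4–5 weeks after treatment on a 0–9 scale against an untreated control.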

[3] = system: SAGPY (Arrowhead (Pygmaea)); experiment: Preemergence weed control under flooded paddy conditions; type: in vivo, Sagittaria pygmaea; conditions: rated 3-4 weeks after treatment
How it was run: (§3)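 Flooded-pot preemergence screen with silt loam and seeds in the upper 0.5 cm. Dose about 0.0313 to 0.500 kg/ha, delivered into flood water; visual 0-9 score after 3 to 4 weeks.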

ECHCG (Barnyardgrass) = experiment: Postemergence herbicidal evaluation; type: in vivo, Echinochloa crus-galli; conditions: postemergence
How it was run: as §1

ORYSAT (Rice, Tebonnet) = experiment: Postemergence herbicidal evaluation; type: in vivo, Oryza sativa, (L.) Tebonnet; conditions: postemergence
How it was run: as §1

CASOB (Sicklepod) = experiment: Preemergence herbicidal evaluation; type: in vivo, Cassia obtusifolia; conditions: rated 4-5 weeks after treatment; for CASOB rating: preemergence, 0-9 scale
How it was run: as §2

[4] = system: GLXMAW (Soybean, Williams); experiment: Postemergence herbicidal evaluation; type: in vivo, Glycine max, (L.) Merr. cv Williams; conditions: postemergence
How it was run: as §1

MOOVA (Monochoria) = experiment: Preemergence weed control under flooded paddy conditions; type: in vivo, Monochoria vaginalis; conditions: rated 3-4 weeks after treatment
How it was run: as §3

CYPIR (Rice Flatsedge) = experiment: Postemergence weed control under flooded paddy conditions; type: in vivo, Cyperus iria; conditions: postemergence weeds
How it was run: (§4)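 Containers holding 3–5 cm weeds and rice at 1.5–2.5 leaves are flooded to 1.5–3 cm above soil. Compound in 50/50 v/v aqueous/acetone is then added directly to the water, about 0.0313–0.500 kg/ha. Plants are kept in the greenhouse and rated 0–9 visually at 3–4 weeks.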

SETVI (Foxtail, Green) [5] = experiment: Preemergence herbicidal evaluation; type: in vivo, Setaria viridis; conditions: rated 4-5 weeks after treatment; for SETVI rating: preemergence, 0-9 scale
How it was run: as §2

AMBEL (Ragweed, Common) = experiment: Postemergence herbicidal evaluation; type: in vivo, Ambrosia artemisifolia; conditions: postemergence
How it was run: as §1

[6] = system: TRZAWR (Wheat, Winter, cv Riband); experiment: Postemergence herbicidal evaluation; type: in vivo, Triticum aestivum; conditions: postemergence
How it was run: as §1

ABUTH (Velvetleaf) [7] = experiment: Postemergence herbicidal evaluation; type: in vivo, Abutilon theophrasti; conditions: postemergence
How it was run: as §1

[8] = system: SAGPY (Arrowhead (Pygmaea)); experiment: Postemergence weed control under flooded paddy conditions; type: in vivo, Sagittaria pygmaea; conditions: postemergence weeds
How it was run: as §4

[9] = Rate 0.0313 kg/ha, rated 3 to 4 weeks after treatment
[10] = Rate 0.0625 kg/ha, rated 3 to 4 weeks after treatment
[11] = Rate 0.1250 kg/ha, rated 3 to 4 weeks after treatment
[12] = Rate 0.2500 kg/ha, rated 3 to 4 weeks after treatment
[13] = rate 0.0313 kg/ha, 3-4 weeks after treatment
[14] = rate 0.0625 kg/ha, 3-4 weeks after treatment
[15] = rate 0.1250 kg/ha, 3-4 weeks after treatment
[16] = rate 0.2500 kg/ha, 3-4 weeks after treatment

**Q.** Which SETVI herbicidal rating (SETVI (Foxtail, Green) [1]; rate 0.0158 kg/ha) does the source give for `CN1C(=O)C(CC(=O)Nc2ccccc2)SC1=Nc1cc(-n2c(=O)cc(C(F)(F)F)n(C)c2=O)c(F)cc1Cl` (centres unmarked) [Compound 91, 2-{{2-Chloro-5-[3,6-dihydro-3-methyl-2,6-dioxo-4-(trifluoromethyl)-1(2H)-pyrimidinyl]-4-fluorophenyl}imino}-3-methyl-4-oxo-5-thiazolidineacetanilide] here?
**A.** 0.0

**Q.** And the SETVI herbicidal rating (SETVI (Foxtail, Green) [1]; rate 0.0315 kg/ha)?
**A.** 0.0

**Q.** And the SETVI herbicidal rating (SETVI (Foxtail, Green) [1]; rate 0.0630 kg/ha)?
**A.** 0.0

**Q.** And the ABUTH rating (ABUTH (Velvetleaf) [2]; 0.1250 kg/ha)?
**A.** 4.0

**Q.** And the ABUTH rating (ABUTH (Velvetleaf) [2]; 0.2500 kg/ha)?
**A.** 9.0

**Q.** What about the “SAGPY herbicidal effect rating” value ([3]; 0.0313 kg/ha) of the same compound?
**A.** 0.0

**Q.** And the “SAGPY herbicidal effect rating” value ([3]; 0.0625 kg/ha)?
**A.** 0.0

**Q.** What about the “SAGPY herbicidal effect rating” value ([3]; 0.1250 kg/ha) of the same compound?
**A.** 0.0

**Q.** And the “SAGPY herbicidal effect rating” value ([3]; 0.2500 kg/ha)?
**A.** 0.0

**Q.** And the ECHCG herbicidal rating (ECHCG (Barnyardgrass); rate 0.0158 kg/ha)?
**A.** 0.0

**Q.** And the ECHCG herbicidal rating (ECHCG (Barnyardgrass); rate 0.0315 kg/ha)?
**A.** 0.0

**Q.** And the ECHCG herbicidal rating (ECHCG (Barnyardgrass); rate 0.0630 kg/ha)?
**A.** 0.0

**Q.** What about the ORYSAT herbicidal rating (ORYSAT (Rice, Tebonnet); rate 0.0158 kg/ha) of the same compound?
**A.** 1.0

**Q.** And the ORYSAT herbicidal rating (ORYSAT (Rice, Tebonnet); rate 0.0315 kg/ha)?
**A.** 1.0

**Q.** What about the ORYSAT herbicidal rating (ORYSAT (Rice, Tebonnet); rate 0.0630 kg/ha) of the same compound?
**A.** 2.0

**Q.** What about the CASOB rating (CASOB (Sicklepod); 0.1250 kg/ha) of the same compound?
**A.** 0.0

**Q.** And the CASOB rating (CASOB (Sicklepod); 0.2500 kg/ha)?
**A.** 0.0

**Q.** What about the GLXMAW herbicidal rating ([4]; rate 0.0158 kg/ha) of the same compound?
**A.** 4.5

**Q.** And the GLXMAW herbicidal rating ([4]; rate 0.0315 kg/ha)?
**A.** 4.5

**Q.** What about the GLXMAW herbicidal rating ([4]; rate 0.0630 kg/ha) of the same compound?
**A.** 5.5

**Q.** What about the “MOOVA herbicidal effect rating” value (MOOVA (Monochoria); 0.0313 kg/ha) of the same compound?
**A.** 9.0

**Q.** And the “MOOVA herbicidal effect rating” value (MOOVA (Monochoria); 0.0625 kg/ha)?
**A.** 9.0

**Q.** And the “MOOVA herbicidal effect rating” value (MOOVA (Monochoria); 0.1250 kg/ha)?
**A.** 9.0

**Q.** And the “MOOVA herbicidal effect rating” value (MOOVA (Monochoria); 0.2500 kg/ha)?
**A.** 9.0

**Q.** What about the “Herbicidal rating CYPIR” value (CYPIR (Rice Flatsedge); [9]) of the same compound?
**A.** 0.0

**Q.** What about the “Herbicidal rating CYPIR” value (CYPIR (Rice Flatsedge); [10]) of the same compound?
**A.** 0.0

**Q.** What about the “Herbicidal rating CYPIR” value (CYPIR (Rice Flatsedge); [11]) of the same compound?
**A.** 0.0

**Q.** What about the “Herbicidal rating CYPIR” value (CYPIR (Rice Flatsedge); [12]) of the same compound?
**A.** 0.0

**Q.** What about the SETVI rating (SETVI (Foxtail, Green) [5]; 0.1250 kg/ha) of the same compound?
**A.** 0.0

**Q.** And the SETVI rating (SETVI (Foxtail, Green) [5]; 0.2500 kg/ha)?
**A.** 0.0

**Q.** And the AMBEL herbicidal rating (AMBEL (Ragweed, Common); rate 0.0158 kg/ha)?
**A.** 0.0

**Q.** What about the AMBEL herbicidal rating (AMBEL (Ragweed, Common); rate 0.0315 kg/ha) of the same compound?
**A.** 0.0

**Q.** What about the AMBEL herbicidal rating (AMBEL (Ragweed, Common); rate 0.0630 kg/ha) of the same compound?
**A.** 4.0

**Q.** And the TRZAWR herbicidal rating ([6]; rate 0.0158 kg/ha)?
**A.** 2.5

**Q.** What about the TRZAWR herbicidal rating ([6]; rate 0.0315 kg/ha) of the same compound?
**A.** 3.0

**Q.** And the TRZAWR herbicidal rating ([6]; rate 0.0630 kg/ha)?
**A.** 4.0

**Q.** And the ABUTH herbicidal rating (ABUTH (Velvetleaf) [7]; rate 0.0158 kg/ha)?
**A.** 7.0

**Q.** And the ABUTH herbicidal rating (ABUTH (Velvetleaf) [7]; rate 0.0315 kg/ha)?
**A.** 9.0

**Q.** And the ABUTH herbicidal rating (ABUTH (Velvetleaf) [7]; rate 0.0630 kg/ha)?
**A.** 9.0

**Q.** What about the “Herbicidal rating SAGPY” value [8, 9] of the same compound?
**A.** 0.0

**Q.** And the “Herbicidal rating SAGPY” value [8, 10]?
**A.** 0.0

**Q.** And the “Herbicidal rating SAGPY” value [8, 11]?
**A.** 0.0

**Q.** What about the “Herbicidal rating SAGPY” value [8, 12] of the same compound?
**A.** 0.0

**Q.** Which results are given for `CCOC(=O)CN1C(=O)C(Cc2ccccc2)SC1=Nc1cc(-n2c(=O)cc(C(F)(F)F)n(C)c2=O)c(F)cc1Cl` (centres unmarked) [Compound 24, Ethyl 5-benzyl-2-{{2-chloro-5-[3,6-dihydro-3-methyl-2,6-dioxo-4-(trifluoromethyl)-1(2H)-pyrimidinyl]-4-fluorophenyl}imino}-4-oxo-3-thiazolidineacetate]?
**A.** SETVI herbicidal rating (SETVI (Foxtail, Green) [1]; rate 0.0158 kg/ha): 0.0; SETVI herbicidal rating (SETVI (Foxtail, Green) [1]; rate 0.0315 kg/ha): 0.0; SETVI herbicidal rating (SETVI (Foxtail, Green) [1]; rate 0.0630 kg/ha): 0.0; ABUTH preemergence herbicidal rating (ABUTH (Velvetleaf) [2]; rate 0.0625 kg/ha): 4.0; ABUTH preemergence herbicidal rating (ABUTH (Velvetleaf) [2]; rate 0.1250 kg/ha): 9.0; ABUTH preemergence herbicidal rating (ABUTH (Velvetleaf) [2]; rate 0.2500 kg/ha): 9.0; Herbicidal rating SAGPY ([3]; 0.0313 kg/ha): 0.0; Herbicidal rating SAGPY ([3]; 0.0625 kg/ha): 0.0; Herbicidal rating SAGPY ([3]; 0.1250 kg/ha): 0.0; Herbicidal rating SAGPY ([3]; 0.2500 kg/ha): 0.0; ECHCG herbicidal rating (ECHCG (Barnyardgrass); rate 0.0158 kg/ha): 0.0; ECHCG herbicidal rating (ECHCG (Barnyardgrass); rate 0.0315 kg/ha): 0.0; ECHCG herbicidal rating (ECHCG (Barnyardgrass); rate 0.0630 kg/ha): 0.0; ORYSAT herbicidal rating (ORYSAT (Rice, Tebonnet); rate 0.0158 kg/ha): 2.5; ORYSAT herbicidal rating (ORYSAT (Rice, Tebonnet); rate 0.0315 kg/ha): 3.0; ORYSAT herbicidal rating (ORYSAT (Rice, Tebonnet); rate 0.0630 kg/ha): 3.0; CASOB preemergence herbicidal rating (CASOB (Sicklepod); rate 0.0625 kg/ha): 0.0; CASOB preemergence herbicidal rating (CASOB (Sicklepod); rate 0.1250 kg/ha): 0.0; CASOB preemergence herbicidal rating (CASOB (Sicklepod); rate 0.2500 kg/ha): 0.0; GLXMAW herbicidal rating ([4]; rate 0.0158 kg/ha): 4.0; GLXMAW herbicidal rating ([4]; rate 0.0315 kg/ha): 5.0; GLXMAW herbicidal rating ([4]; rate 0.0630 kg/ha): 5.5; Herbicidal rating MOOVA (MOOVA (Monochoria); 0.0313 kg/ha): 0.0; Herbicidal rating MOOVA (MOOVA (Monochoria); 0.0625 kg/ha): 9.0; Herbicidal rating MOOVA (MOOVA (Monochoria); 0.1250 kg/ha): 9.0; Herbicidal rating MOOVA (MOOVA (Monochoria); 0.2500 kg/ha): 9.0; Herbicidal rating CYPIR (CYPIR (Rice Flatsedge); [13]): 0.0; Herbicidal rating CYPIR (CYPIR (Rice Flatsedge); [14]): 0.0; Herbicidal rating CYPIR (CYPIR (Rice Flatsedge); [15]): 0.0; Herbicidal rating CYPIR (CYPIR (Rice Flatsedge); [16]): 0.0; SETVI preemergence herbicidal rating (SETVI (Foxtail, Green) [5]; rate 0.0625 kg/ha): 0.0; SETVI preemergence herbicidal rating (SETVI (Foxtail, Green) [5]; rate 0.1250 kg/ha): 0.0; SETVI preemergence herbicidal rating (SETVI (Foxtail, Green) [5]; rate 0.2500 kg/ha): 1.0; AMBEL herbicidal rating (AMBEL (Ragweed, Common); rate 0.0158 kg/ha): 2.0; AMBEL herbicidal rating (AMBEL (Ragweed, Common); rate 0.0315 kg/ha): 3.0; AMBEL herbicidal rating (AMBEL (Ragweed, Common); rate 0.0630 kg/ha): 9.0; TRZAWR herbicidal rating ([6]; rate 0.0158 kg/ha): 3.5; TRZAWR herbicidal rating ([6]; rate 0.0315 kg/ha): 3.5; TRZAWR herbicidal rating ([6]; rate 0.0630 kg/ha): 3.5; ABUTH herbicidal rating (ABUTH (Velvetleaf) [7]; rate 0.0158 kg/ha): 9.0; ABUTH herbicidal rating (ABUTH (Velvetleaf) [7]; rate 0.0315 kg/ha): 9.0; ABUTH herbicidal rating (ABUTH (Velvetleaf) [7]; rate 0.0630 kg/ha): 9.0; Herbicidal rating SAGPY [8, 13]: 0.0; Herbicidal rating SAGPY [8, 14]: 0.0; Herbicidal rating SAGPY [8, 15]: 0.0; Herbicidal rating SAGPY [8, 16]: 0.0
